Measurements from PMC10907465 (Inflammopharmacology, 2023).
Read-outs that look alike come from different tables or passages of the source.

Assays:
Format in all cases: in vivo, rat
IL-1β = experiment: LPS-induced ALI in rats: IL-1β ELISA
Protocol: (§1) Thirty-five free pathogenic Sprague–Dawley male albino rats (100–120 g) were obtained from the Egyptian Drug Authority (EDA) animal house. Randomly, the animals were divided into seven groups, (each 5 rats) as follows: Group I: normal control group, Group II: positive control group on the 7th day only received LPS (Lipopolysaccharides) at a dose of 10 mg/kg bw. i.p. suspended in sterile saline solution 0.9% (Ijinu et al. [2022]), Group III dexamethasone positive control (5 mg/kg i.p.) (Murillo-Cuesta et al. [2023]) for 7 days followed by LPS single inflammatory dose model (10 mg/kg b. w i.p.). On the 7th day, 1 h after the last dexamethasone dose. […] All animals were anesthetized to obtain blood in heparinized capillary tubes for pro-inflammatory cytokines (TNF-α, IL-1, IL-6, and MPO) ELISA examination in addition to lung tissues for determination of antioxidant enzymes (SOD, Catalase, GSH and MDA), real-time PCR (p38.MAPK14 and CY450P2E1), western blot (NF-κB p65), histological lung tissue scoring and immunohistochemistry examination (TGF-β1).
(§2) Rat TNF-α (Catalog No: MBS2507393 96 T/48 T/24 T), IL-6 (Catalog No: MBS355410), IL-1β (Catalog no. MBS825017), MPO (Catalog No. MBS2019590) ELISA kits were obtained from MyBiosource, San Diego, USA.

TGF-β1 = settings: rats
Protocol: (§3) Thirty-five free pathogenic Sprague–Dawley male albino rats (100–120 g) were obtained from the Egyptian Drug Authority (EDA) animal house. Randomly, the animals were divided into seven groups, (each 5 rats) as follows: Group I: normal control group, Group II: positive control group on the 7th day only received LPS (Lipopolysaccharides) at a dose of 10 mg/kg bw. i.p. suspended in sterile saline solution 0.9% (Ijinu et al. [2022]), Group III dexamethasone positive control (5 mg/kg i.p.) (Murillo-Cuesta et al. [2023]) for 7 days followed by LPS single inflammatory dose model (10 mg/kg b. w i.p.). On the 7th day, 1 h after the last dexamethasone dose. […]
Lung tissues were collected and fixed in 10% neutral buffered formaldehyde for 24 h to stabilize and fix tissue proteins. […] The same position of the lungs in five mice was observed through a microscope, and the histological lesion of the lung was evaluated through the incidence of congestion, inflammation, and hemorrhage, severity scoring of neutrophil infiltrates, and proportion of airspace areas. […]

MDA = experiment: LPS-induced ALI in rats: pulmonary MDA; settings: lung tissue
Protocol: as §1

IL-6 = experiment: LPS-induced ALI in rats: IL-6 ELISA
Protocol: as §1, §2

GSH = experiment: LPS-induced ALI in rats: pulmonary GSH; settings: lung tissue
Protocol: as §1

MPO = settings: ELISA, rats
Protocol: as §1, §2

TNF-α = settings: ELISA, rats
Protocol: as §1, §2

P38.MAPK14 = experiment: LPS-induced ALI in rats: real-time PCR of P38 MAPK gene in lung; settings: lung tissue
Protocol: as §3
(§4) Primers were utilized in a 25- µl reaction containing 12.5 µl of the 2 × QuantiTect SYBR Green PCR Master Mix (StrateGene® MX3005P, Qiagen, Germany), 0.25 µl of Revert Aid reverse transcriptase (200 U/µL) (Thermo Fisher, Germany), 0.5 µl of each primer of 20 pmol concentration, 8.25 µl of water, and 3 µl of RNA template. […] Amplification curves and Ct values were determined by the Strata gene MX3005P software, version 3 (Agilent, California, USA). […]

NF-κB p65 = settings: western blot, lung, relative band intensity (ratio of AU to internal control), rats
Protocol: as §3
Samples were separated on a polyacrylamide gel; the procedure was abbreviated as SDS-PAGE, or Sodium Dodecyl Sulfate Polyacrylamide Gel Electrophoresis, a standard technique for separating proteins according to their molecular weight. […] Imaging and data analysis quantitation: The chemiluminescent substrate (Clarity TM Western ECL substrate, Bio-Rad cat# 170-5060) was applied to the blot according to the manufacturer’s recommendation.

SOD = experiment: LPS-induced ALI in rats: pulmonary SOD; settings: lung tissue
Protocol: as §1

lung tissues = experiment: LPS-induced ALI in rats: H&E histopathology and histological scoring of pulmonary inflammation; settings: for Proportion of airspace area: airspace area / total area of one view, 400×; for Incidence of congestion / Incidence of hemorrhage / Severity of neutrophil infiltration: lung H&E
Protocol: as §1
Lung tissues were collected and fixed in 10% neutral buffered formaldehyde for 24 h to stabilize and fix tissue proteins. Dehydration, clearing, and paraffin infiltration and embedding were performed, and then wax blocks were sectioned by microtome into 5 µ sections and stained with Hematoxylin and Eosin Stain. Hematoxylin staining was performed according Ehrlich's Hematoxylin (Ehrlich [1886]) and eosin staining was done according to Avwioro ([2011]). Anti-Transforming Growth Factor-β (TGF-β) antibody immunohistochemistry stain (Arigo Biolaboratories, ARG 56429) was also performed, and Immuno-histochemical staining was performed according to Bajracharya et al. ([2017]). The same position of the lungs in five […] was observed through a microscope, and the histological lesion of the lung was evaluated through the incidence of congestion, inflammation, and hemorrhage, severity scoring of neutrophil infiltrates, and proportion of airspace areas. The level of severity was judged from – to +++, representing none to severe. The airspace proportion is the ratio of the airspace area and the total area of one view under 400 × magnifications (Wang et al. [2018]). According to Xue et al. ([2011]) & Ai-Li Huang et al. ([2014]): the semi-quantitative criterion for TGF-β1 staining intensity was estimated using a four-tiered scoring system: negative (−), no staining at all; weak (+), weak staining regardless of positive cell percentages or moderate staining of ≤ 30% of cells; moderate (++), moderate staining of > 30% of cells or strong staining of ≤ 50% of cells; strong (+++), strong staining of > 50% of cells. Low expression of TGF-β1 was defined as (-) or ( +), and High expression was defined as (++) or (+++).

Catalase = experiment: LPS-induced ALI in rats: pulmonary catalase; settings: lung tissue
Protocol: as §1

CY450P2E1 = experiment: LPS-induced ALI in rats: real-time PCR of CY450P2E1 gene in lung; settings: lung tissue
Protocol: as §3, §4

[1] = dexamethasone 5 mg/kg i.p. 7 days + LPS 10 mg/kg i.p.

C[C@@H]1C[C@H]2[C@@H]3CCC4=CC(=O)C=C[C@]4(C)[C@@]3(F)[C@@H](O)C[C@]2(C)[C@@]1(O)C(=O)CO [Dexamethasone, dexamethasone]
IL-β1 (IL-1β; [1]): 48.77 ± 1.995^***b
TGF-β1 immunohistochemical expression in lung (TGF-β1; [1]): + +
MDA (MDA; [1]): 20.69 ± 2.49^***b
IL-6 (IL-6; [1]): 58.87 ± 1.38^***b
GSH (GSH; [1]): 1.174 ± 0.1565^**b
MPO (MPO; [1]): 45.50 ± 2.926^***b
TNF-α (TNF-α; [1]): 91.27 ± 1.940^***b
P38 MAPK Fold change (P38.MAPK14; [1]): 3.585 ± 0.2314^***b Fold change
Nf-ĸB (NF-κB p65; [1]): 3.907 ± 0.048
SOD (SOD; [1]): 0.8047 ± 0.041^*b
Proportion of airspace area (lung tissues; [1]): 4.89%
H&E histological examination of lung tissue (finding in words) (lung tissues; [1]): collapsed alveoli in some areas, while other areas showed emphysema
Incidence of congestion (lung tissues; [1]): 4/8
Incidence of hemorrhage (lung tissues; [1]): 1/8
Severity of neutrophil infiltration (lung tissues; [1]): ++
Catalase (Catalase; [1]): 0.098 ± 0.006^*b
CY450P2E1 Fold change (CY450P2E1; [1]): 5.345 ± 0.3346^***b Fold change

Lipopolysaccharide [LPS]
IL-β1 (IL-1β; LPS 10 mg/kg i.p. only): 112.2 ± 3.143^***a
TGF-β1 immunohistochemical expression in lung (TGF-β1; LPS 10 mg/kg i.p. only): + +
MDA (MDA; LPS 10 mg/kg i.p. only): 42.15 ± 0.800^***a
IL-6 (IL-6; LPS 10 mg/kg i.p. only): 126.1 ± 3.75^***a
GSH (GSH; LPS 10 mg/kg i.p. only): 0.4737 ± 0.038^*a
MPO (MPO; LPS 10 mg/kg i.p. only): 102.4 ± 3.496^***a
TNF-α (TNF-α; LPS 10 mg/kg i.p. only): 157.0 ± 4.917^***a
P38 MAPK Fold change (P38.MAPK14; LPS 10 mg/kg i.p. only): 9.682 ± 0.1741^***a Fold change
Nf-ĸB (NF-κB p65; LPS 10 mg/kg i.p. only): 3.973 ± 0.014^***a
SOD (SOD; LPS 10 mg/kg i.p. only): 0.4713 ± 0.041^*a
H&E histological examination of lung tissue (finding in words) (lung tissues; LPS 10 mg/kg i.p. only): collapsed alveoli in some areas, while other areas showed emphysema
Proportion of airspace area (lung tissues; LPS 10 mg/kg i.p. only): 2.66%
Incidence of congestion (lung tissues; LPS 10 mg/kg i.p. only): 5/8
Incidence of hemorrhage (lung tissues; LPS 10 mg/kg i.p. only): 2/8
Severity of neutrophil infiltration (lung tissues; LPS 10 mg/kg i.p. only): ++++
Catalase (Catalase; LPS 10 mg/kg i.p. only): 0.2153 ± 0.001^*a
CY450P2E1 Fold change (CY450P2E1; LPS 10 mg/kg i.p. only): 12.68 ± 0.2038^***a Fold change
